From the supplement of paper PMC13380429

How the values were obtained:
Settings in all cases: 72 h
Caco-2 [1] = experiment: relative viability EC50 (midpoint between 100% and the lowest measured viability); higher = less toxic
HepG2 [2] = experiment: as above
U2OS [3] = experiment: as above
Calu-3 [4] = experiment: as above
Vero E6 [5] = experiment: as above
Caco-2 [6] = experiment: drug sensitivity score (DSS) for viability; higher = more toxic; extreme values may be limits of the assay
HepG2 [7] = experiment: as above
U2OS [8] = experiment: as above
Calu-3 [9] = experiment: as above
Vero E6 [10] = experiment: as above
Caco-2 [11] = experiment: cell viability relative to DMSO; higher = less toxic
HepG2 [12] = experiment: as above
U2OS [13] = experiment: as above
Calu-3 [14] = experiment: as above
Vero E6 [15] = experiment: as above

SMILES | relative viability EC50 (Caco-2 [1]) | relative viability EC50 (HepG2 [2]) | relative viability EC50 (U2OS [3]) | relative viability EC50 (Calu-3 [4]) | relative viability EC50 (Vero E6 [5]) | drug sensitivity score (Caco-2 [6]) | drug sensitivity score (HepG2 [7]) | drug sensitivity score (U2OS [8]) | drug sensitivity score (Calu-3 [9]) | drug sensitivity score (Vero E6 [10]) | cell viability (Caco-2 [11]; 1 nM) | cell viability (Caco-2 [11]; 10 nM) | cell viability (Caco-2 [11]; 100 nM) | cell viability (Caco-2 [11]; 1000 nM) | cell viability (Caco-2 [11]; 10000 nM) | cell viability (HepG2 [12]; 1 nM) | cell viability (HepG2 [12]; 10 nM) | cell viability (HepG2 [12]; 100 nM) | cell viability (HepG2 [12]; 1000 nM) | cell viability (HepG2 [12]; 10000 nM) | cell viability (U2OS [13]; 1 nM) | cell viability (U2OS [13]; 10 nM) | cell viability (U2OS [13]; 100 nM) | cell viability (U2OS [13]; 1000 nM) | cell viability (U2OS [13]; 10000 nM) | cell viability (Calu-3 [14]; 1 nM) | cell viability (Calu-3 [14]; 10 nM) | cell viability (Calu-3 [14]; 100 nM) | cell viability (Calu-3 [14]; 1000 nM) | cell viability (Calu-3 [14]; 10000 nM) | cell viability (Vero E6 [15]; 1 nM) | cell viability (Vero E6 [15]; 10 nM) | cell viability (Vero E6 [15]; 100 nM) | cell viability (Vero E6 [15]; 1000 nM) | cell viability (Vero E6 [15]; 10000 nM)
CN(C)c1ccc(/C=C2\CCCN=C2c2cccnc2)cc1 [DMAB-anabaseine] | > 10 µM | > 10 µM | > 10 µM | > 10 µM | > 10 µM | 0.4 | 0.1 | 0 | 0 | 0 | 103% | 107% | 103% | 120% | 76.2% | 109% | 90.2% | 98.2% | 99.7% | 87.4% | 94.2% | 96.4% | 97.4% | 94.4% | 93.6% | 101% | 109% | 139% | 105% | 88.8% | 105% | 92.4% | 99.3% | 93.5% | 91.5%
CS(=O)(=O)c1ccc(-c2cc(Br)sc2-c2ccc(F)cc2)cc1 [DUP-697] | > 10 µM | > 10 µM | > 10 µM | > 10 µM | > 10 µM | 0 | 0.4 | 0 | 0 | 0 | 110% | 95.1% | 102% | 104% | 88.2% | 103% | 107% | 105% | 104% | 79.5% | 103% | 98.1% | 103% | 105% | 104% | 97.2% | 98% | 103% | 112% | 114% | 95.6% | 101% | 93.4% | 96.5% | 97.8%
COc1c(C)cnc(Cn2cc(C#CCC(C)(C)O)c3c(Cl)nc(N)nc32)c1C [EC-144] | 0.189 µM | 0.0735 µM | 0.319 µM | 0.152 µM | 0.413 µM | 14.2 | 25.6 | 17.3 | 13.6 | 11.3 | 105% | 97.3% | 88.8% | 33.1% | 39.9% | 96.4% | 103% | 32.3% | 1.2% | 1.3% | 110% | 107% | 94.5% | 9.2% | 3.5% | 104% | 108% | 84.3% | 39.4% | 49.5% | 99.3% | 102% | 105% | 37.3% | 32.8%
CCOC(=O)c1ncn2c1[C@@H]1CCCN1C(=O)c1cc(OC)ccc1-2 [L-655,708] | > 10 µM | > 10 µM | > 10 µM | > 10 µM | > 10 µM | 0 | 0 | 0 | 0 | 0 | 97.8% | 95.8% | 118% | 95.1% | 107% | 90.7% | 100% | 104% | 98.7% | 106% | 100% | 98.9% | 97.5% | 99.2% | 104% | 101% | 88% | 96.3% | 96.7% | 105% | 94.6% | 95% | 92.3% | 97.9% | 111%
NCCCC[C@H](N)C(=O)O [L-lysine] | > 10 µM | > 10 µM | > 10 µM | > 10 µM | > 10 µM | 0 | 0 | 0 | 0 | 0 | 110% | 102% | 96.8% | 86% | 106% | 111% | 102% | 103% | 93.2% | 114% | 103% | 96.7% | 101% | 97.5% | 99.5% | 92.7% | 102% | 106% | 97.7% | 105% | 108% | 106% | 99.6% | 98.8% | 104%
O=C(O)C[C@H]1CC[C@H](c2ccc(-c3ccc(Nc4ccc(C(F)(F)F)nc4)cn3)cc2)CC1 [LCQ908] | > 10 µM | > 10 µM | > 10 µM | > 10 µM | > 10 µM | 0 | 0 | 0 | 0 | 0 | 104% | 102% | 98.3% | 100% | 92.4% | 99.4% | 102% | 108% | 93.5% | 99.8% | 95.7% | 102% | 97% | 102% | 90.5% | 92.1% | 103% | 95% | 95.7% | 95.5% | 105% | 104% | 103% | 100% | 104%
COc1cccc(-c2ccc([C@@H](Oc3cc(-c4ccc(C[C@H](N)C(=O)O)cc4)nc(N)n3)C(F)(F)F)cc2)c1 [LX1031] | > 10 µM | > 10 µM | > 10 µM | > 10 µM | > 10 µM | 0 | 0 | 0 | 0 | 0 | 91.5% | 96.7% | 94.1% | 92.9% | 101% | 111% | 100% | 111% | 99.3% | 102% | 96.4% | 93.4% | 95.2% | 102% | 99.9% | 99.3% | 98.2% | 102% | 97.3% | 103% | 105% | 89.6% | 101% | 98.8% | 106%
